How the values were obtained:
Test in all cases: combination Emax (second highest fraction inhibited in the dose matrix, 72 h); higher = more inhibition; extreme values may be limits of the assay
[1] = system: C-33-A (Cervical Carcinoma)
How it was run: (§1)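 After 24 hours at 37°C and 5% CO2 in 1536-well plates, cells in DMEM/F12 or RPMI plus 10% FBS received two-drug dose matrices for 72 hours. Viability came from CellTiter-Glo 2.0 luminescence and was scaled as inhibition, anchored at 0 by vehicle wells and at 1 by blank wells. Combination Emax is taken as the second-highest inhibition in the matrix, and Bliss excess as the observed combination effect less EA + EB − EA·EB, with EA and EB the single-agent effects.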

[2] = system: SAT (Head and Neck Carcinoma)
How it was run: as §1

[3] = system: MS-1 (Small Cell Lung Carcinoma)
How it was run: as §1

[4] = system: OAW-28 (Ovarian Carcinoma)
How it was run: as §1

[5] = system: P30-OHK (B-Lymphoblastic Leukemia)
How it was run: as §1

[6] = system: NAMALWA (Burkitt's Lymphoma)
How it was run: as §1

[7] = system: DBTRG-05MG (Glioblastoma)
How it was run: as §1

WM35 (Melanoma) = system: WM35 (Melanoma)
How it was run: as §1

[8] = system: SCC-4 (Oral Cavity Carcinoma)
How it was run: as §1

[9] = system: PA-TU-8988T (Pancreatic Carcinoma)
How it was run: as §1

[10] = system: ZR-75-30 (Breast Carcinoma)
How it was run: as §1

SK-N-SH (Neuroblastoma) = system: SK-N-SH (Neuroblastoma)
How it was run: as §1

NCI-H226 (Mesothelioma) = system: NCI-H226 (Mesothelioma)
How it was run: as §1

[11] = system: TUR (Acute Myeloid Leukemia)
How it was run: as §1

[12] = system: CPC-N (Small Cell Lung Carcinoma)
How it was run: as §1

[13] = system: T84 (Colorectal Carcinoma)
How it was run: as §1

[14] = system: KP-4 (Pancreatic Carcinoma)
How it was run: as §1

[15] = system: Raji (Burkitt's Lymphoma)
How it was run: as §1

[16] = system: NCI-H1963 (Small Cell Lung Carcinoma)
How it was run: as §1

Structure (SMILES) | combination Emax [1] | combination Emax [2] | combination Emax [3] | combination Emax [4] | combination Emax [5] | combination Emax [6] | combination Emax [7] | combination Emax (WM35 (Melanoma)) | combination Emax [8] | combination Emax [9] | combination Emax [10] | combination Emax (SK-N-SH (Neuroblastoma)) | combination Emax (NCI-H226 (Mesothelioma)) | combination Emax [11] | combination Emax [12] | combination Emax [13] | combination Emax [14] | combination Emax [15] | combination Emax [16]
CN(C)CCCOc1ccc(-c2ccc3ncc4c(c3c2)n(C2CCOCC2)c(=O)n4C)cn1 [AZD0156] + O=C(c1cc(Cc2n[nH]c(=O)c3ccccc23)ccc1F)N1CCN(C(=O)C2CC2)CC1 [Olaparib] (first compound max 3 µM, partner max 3 µM) | 0.419 | 0.133 | 0.438 | 0.284 | 0.668 | 0.487 | 0.152 | 0.201 | 0.164 | 0.211 | 0.283 | 0.292 | 0.251 | 0.273 | 0.396 | 0.353 | 0.287 | 0.482 | 
C=CCn1c(=O)c2cnc(Nc3ccc(N4CCN(C)CC4)cc3)nc2n1-c1cccc(C(C)(C)O)n1 [AZD1775] + C1CN(CCC1(C(=O)N[C@@H](CCO)C2=CC=C(C=C2)Cl)N)C3=NC=NC4=C3C=CN4 [Capivasertib] (first compound max 3 µM, partner max 3 µM) | 0.996 | 0.563 | 0.911 | 0.593 | 0.947 | 0.981 | 0.474 | 0.681 | 0.505 | 0.851 | 0.441 | 0.711 | 0.45 | 0.955 | 0.948 | 0.785 | 0.787 | 0.977 | 
COc1nnc2ccc(N3CCC(c4ccc(OCCN5CCN(C)C(=O)[C@H]5C)cc4)CC3)nn12 [AZD5153] + C=CCn1c(=O)c2cnc(Nc3ccc(N4CCN(C)CC4)cc3)nc2n1-c1cccc(C(C)(C)O)n1 [AZD1775] (first compound max 1 µM, partner max 1 µM) | 0.956 | 0.785 | 0.964 | 0.701 | 1 | 0.969 | 0.369 | 0.467 | 0.568 | 0.778 | 0.309 | 0.645 | 0.448 | 0.867 | 0.918 | 0.349 | 0.684 | 0.711 | 0.952
COc1nnc2ccc(N3CCC(c4ccc(OCCN5CCN(C)C(=O)[C@H]5C)cc4)CC3)nn12 [AZD5153] + CC1(C)CCC(CN2CCN(c3ccc(C(=O)NS(=O)(=O)c4ccc(NCC5CCOCC5)c([N+](=O)[O-])c4)c(Oc4cnc5[nH]ccc5c4)c3)CC2)=C(c2ccc(Cl)cc2)C1 [Venetoclax] (first compound max 1 µM, 7x7, partner max 1 µM) | 0.379 | 0.723 | 0.906 | 0.352 | 1 | 0.761 | 0.252 | 0.556 | 0.389 | 0.664 | 0.235 | 0.623 | 0.438 | 0.458 | 0.539 | 0.219 | 0.526 | 0.62 | 0.988
COc1nnc2ccc(N3CCC(c4ccc(OCCN5CCN(C)C(=O)[C@H]5C)cc4)CC3)nn12 [AZD5153] + CCN(CCO)CCCOc1ccc2c(Nc3cc(CC(=O)Nc4cccc(F)c4)[nH]n3)ncnc2c1 [AZD2811] (first compound max 1 µM, 7x7, partner max 1 µM) | 0.476 | 0.775 | 0.854 | 0.431 | 1 | 0.748 | 0.333 | 0.534 | 0.444 | 0.695 | 0.313 | 0.532 | 0.443 | 0.827 | 0.697 | 0.202 | 0.67 | 0.558 | 0.882
COc1nnc2ccc(N3CCC(c4ccc(OCCN5CCN(C)C(=O)[C@H]5C)cc4)CC3)nn12 [AZD5153] + CN(CC[C@H](CSC1=CC=CC=C1)NC2=C(C=C(C=C2)S(=O)(=O)NC(=O)C3=CC=C(C=C3)N4CCC(CC4)[C@H](C5=CC=CC=C5C6=CC=C(C=C6)Cl)O)S(=O)(=O)C(F)(F)F)CCO [AZD4320] (first compound max 1 µM, 7x7, partner max 1 µM) |  | 0.804 |  | 1 | 1 |  | 0.399 | 0.718 |  | 0.695 |  |  |  | 0.626 |  |  |  | 0.579 | 1
COc1nnc2ccc(N3CCC(c4ccc(OCCN5CCN(C)C(=O)[C@H]5C)cc4)CC3)nn12 [AZD5153] + C[C@@H]1COCCN1C2=NC(=NC(=C2)C3(CC3)[S@](=N)(=O)C)C4=C5C=CNC5=NC=C4 [AZD6738] (first compound max 1 µM, 7x7, partner max 10 µM) | 0.958 | 0.804 | 1 | 0.851 | 1 | 0.914 | 0.307 | 0.731 | 0.732 | 0.778 | 0.34 | 0.861 | 0.37 | 0.984 | 0.967 | 0.583 | 0.77 | 0.875 | 0.91
COc1nnc2ccc(N3CCC(c4ccc(OCCN5CCN(C)C(=O)[C@H]5C)cc4)CC3)nn12 [AZD5153] + Cc1c2c(nn1C)CSCc1cc(n(C)n1)CSc1cc(c3ccccc3c1)OCCCc1c(C(=O)O)n(C)c3c-2c(Cl)ccc13 [AZD5991] (first compound max 1 µM, 7x7, partner max 1 µM) | 0.644 | 0.914 | 0.961 | 0.666 | 1 | 0.966 | 0.205 | 0.798 | 0.775 | 0.886 | 0.29 | 0.526 | 0.407 | 0.998 | 0.751 | 0.23 | 0.76 | 0.896 | 0.89
COc1nnc2ccc(N3CCC(c4ccc(OCCN5CCN(C)C(=O)[C@H]5C)cc4)CC3)nn12 [AZD5153] + Cn1cnc2c(F)c(Nc3ccc(Br)cc3Cl)c(C(=O)NOCCO)cc21 [Selumetinib] (first compound max 1 µM, 7x7, partner max 10 µM) | 0.573 | 0.843 | 0.817 | 0.498 | 0.999 | 0.771 | 0.399 | 0.968 | 0.509 | 0.778 | 0.305 | 0.521 | 0.377 | 0.744 | 0.451 | 0.483 | 0.597 | 0.535 | 0.757
Cc1c2c(nn1C)CSCc1cc(n(C)n1)CSc1cc(c3ccccc3c1)OCCCc1c(C(=O)O)n(C)c3c-2c(Cl)ccc13 [AZD5991] + CN(C)CCCOc1ccc(-c2ccc3ncc4c(c3c2)n(C2CCOCC2)c(=O)n4C)cn1 [AZD0156] (first compound max 1 µM, 7x7, partner max 1 µM) | 0.245 | 0.638 | 0.524 | 0.25 | 0.71 | 0.996 | 0.221 | 0.231 | 0.382 | 0.214 | 0.286 | 0.454 | 0.293 | 0.477 | 0.314 | 0.192 | 0.259 | 0.704 | 0.354
NC1(C(=O)N[C@@H](CCO)c2ccc(Cl)cc2)CCN(c2ncnc3[nH]ccc23)CC1 [Capivasertib] + CC(=O)c1c(C)c2cnc(Nc3ccc(N4CCNCC4)cn3)nc2n(C2CCCC2)c1=O [Palbociclib] (first compound max 10 µM, 7x7, partner max 10 µM) | 0.679 | 0.662 | 0.266 | 0.191 | 0.56 | 0.701 | 0.23 | 0.263 | 0.271 | 0.456 | 0.396 | 0.454 | 0.3 | 0.876 | 0.382 | 0.267 | 0.595 | 0.491 | 0.477
CC(=O)c1c(C)c2cnc(Nc3ccc(N4CCNCC4)cn3)nc2n(C2CCCC2)c1=O [Palbociclib] + CN(CC[C@H](CSC1=CC=CC=C1)NC2=C(C=C(C=C2)S(=O)(=O)NC(=O)C3=CC=C(C=C3)N4CCC(CC4)[C@H](C5=CC=CC=C5C6=CC=C(C=C6)Cl)O)S(=O)(=O)C(F)(F)F)CCO [AZD4320] (first compound max 10 µM, 7x7, partner max 1 µM) |  | 0.485 |  | 0.889 | 0.967 |  | 0.529 | 0.229 |  | 0.33 |  |  |  | 0.381 |  |  |  | 0.455 | 1
C[C@@H](c1ccc2nccn2c1)n1nnc2ncc(-c3cnn(C)c3)nc21 [Savolitinib] + CN(CC[C@H](CSC1=CC=CC=C1)NC2=C(C=C(C=C2)S(=O)(=O)NC(=O)C3=CC=C(C=C3)N4CCC(CC4)[C@H](C5=CC=CC=C5C6=CC=C(C=C6)Cl)O)S(=O)(=O)C(F)(F)F)CCO [AZD4320] (first compound max 1 µM, 7x7, partner max 1 µM) |  | 0.189 |  | 0.903 | 0.948 |  | 0.439 | 0.251 |  | 0.191 |  |  |  | 0.135 |  |  |  | 0.173 | 1

From the supplement of paper PMC11061612
